According to patent US9695155B2, “Herbicidal substituted pyrimidinyloxy benzene compounds” (E. I. DU PONT DE NEMOURS AND COMPANY, priority 2013, dated 2017):

Key:
Assay in all cases: Test C preemergence
[1] = test system: wheat, winter; assay type: in vivo, Triticum aestivum
Outline: (§1)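 Seeds were sown in loam–sand blend and sprayed preemergence, while plants at 1- to 4-leaf stage (2–18 cm) in peat-based medium received postemergence sprays; test chemicals were formulated in a non-phytotoxic solvent with surfactant. After 13–15 days in a greenhouse, injury was rated visually against controls, 0 (no effect) to 100 (complete control).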

[2] = test system: johnsongrass; assay type: in vivo, Sorghum halepense
Outline: as §1

[3] = test system: ragweed; assay type: in vivo, Ambrosia elatior
Outline: as §1

[4] = test system: soybean; assay type: in vivo, Glycine max
Outline: as §1

[5] = test system: velvetleaf; assay type: in vivo, Abutilon theophrasti
Outline: as §1

[6] = test system: oilseed rape; assay type: in vivo, Brassica napus
Outline: as §1

[7] = test system: blackgrass; assay type: in vivo, Alopecurus myosuroides
Outline: as §1

[8] = test system: pigweed; assay type: in vivo, Amaranthus retroflexus
Outline: as §1

[9] = test system: large (Lg) crabgrass; assay type: in vivo, Digitaria sanguinalis
Outline: as §1

[10] = test system: waterhemp; assay type: in vivo, Amaranthus rudis
Outline: as §1

[11] = test system: barnyardgrass; assay type: in vivo, Echinochloa crus-galli
Outline: as §1

[12] = test system: Italian ryegrass; assay type: in vivo, Lolium multiflorum
Outline: as §1

[13] = test system: giant foxtail; assay type: in vivo, Setaria faberii
Outline: as §1

[14] = 16 g ai/ha, preemergence, scale 0 to 100 (0 no effect, 100 complete control)
[15] = 31 g ai/ha, preemergence, scale 0 to 100 (0 no effect, 100 complete control)
[16] = 125 g ai/ha, preemergence, scale 0 (no effect) to 100 (complete control)
[17] = Preemergence, 62 g ai/ha, scale 0 to 100, 0 no effect, 100 complete control

Compound: N#Cc1cccc(Oc2ncc(Cl)cn2)c1-n1cc(OCC(F)(F)F)cn1 [Compound 274, 3-[(5-chloro-2-pyrimidinyl)oxy]-2-[4-(2,2,2-trifluoroethoxy)-1H-pyrazol-1-yl]benzonitrile]
- plant injury at 16 g/ha ([1]; Triticum aestivum, pre-emergence, 16 g ai/ha, preemergence, scale 0 to 100 (0 no effect, 100 complete control), read-out: Wheat plant response rating): 20%
- plant injury at 125 g/ha ([1]; Triticum aestivum, pre-emergence, 125 g ai/ha, preemergence, scale 0 (no effect) to 100 (complete control), read-out: Wheat plant response rating): 90%
- plant injury at 62 g/ha ([1]; Triticum aestivum, pre-emergence, Preemergence, 62 g ai/ha, scale 0 to 100, 0 no effect, 100 complete control, read-out: Plant response rating, Wheat): 90%
- pest or weed control at 16 g/ha ([2]; Sorghum halepense, pre-emergence, 16 g ai/ha, preemergence, scale 0 to 100 (0 no effect, 100 complete control), read-out: Johnsongrass plant response rating): 10%
- pest or weed control at 125 g/ha ([2]; Sorghum halepense, pre-emergence, 125 g ai/ha, preemergence, scale 0 (no effect) to 100 (complete control), read-out: Johnsongrass plant response rating): 98%
- pest or weed control at 62 g/ha ([2]; Sorghum halepense, pre-emergence, Preemergence, 62 g ai/ha, scale 0 to 100, 0 no effect, 100 complete control, read-out: Plant response rating, Johnsongrass): 95%
- pest or weed control at 16 g/ha ([3]; Ambrosia artemisiifolia, pre-emergence, 16 g ai/ha, preemergence, scale 0 to 100 (0 no effect, 100 complete control), read-out: Ragweed plant response rating): 10%
- pest or weed control at 125 g/ha ([3]; Ambrosia artemisiifolia, pre-emergence, 125 g ai/ha, preemergence, scale 0 (no effect) to 100 (complete control), read-out: Ragweed plant response rating): 75%
- pest or weed control at 62 g/ha ([3]; Ambrosia artemisiifolia, pre-emergence, Preemergence, 62 g ai/ha, scale 0 to 100, 0 no effect, 100 complete control, read-out: Plant response rating, Ragweed): 35%
- plant injury at 16 g/ha ([4]; Glycine max, pre-emergence, 16 g ai/ha, preemergence, scale 0 to 100 (0 no effect, 100 complete control), read-out: Soybean plant response rating): 35%
- plant injury at 125 g/ha ([4]; Glycine max, pre-emergence, 125 g ai/ha, preemergence, scale 0 (no effect) to 100 (complete control), read-out: Soybean plant response rating): 98%
- plant injury at 62 g/ha ([4]; Glycine max, pre-emergence, Preemergence, 62 g ai/ha, scale 0 to 100, 0 no effect, 100 complete control, read-out: Plant response rating, Soybean): 95%
- pest or weed control at 16 g/ha ([5]; Abutilon theophrasti, pre-emergence, 16 g ai/ha, preemergence, scale 0 to 100 (0 no effect, 100 complete control), read-out: Velvetleaf plant response rating): 80%
- pest or weed control at 125 g/ha ([5]; Abutilon theophrasti, pre-emergence, 125 g ai/ha, preemergence, scale 0 (no effect) to 100 (complete control), read-out: Velvetleaf plant response rating): 100%
- pest or weed control at 62 g/ha ([5]; Abutilon theophrasti, pre-emergence, Preemergence, 62 g ai/ha, scale 0 to 100, 0 no effect, 100 complete control, read-out: Plant response rating, Velvetleaf): 100%
- plant injury at 16 g/ha ([6]; Brassica napus, pre-emergence, 16 g ai/ha, preemergence, scale 0 to 100 (0 no effect, 100 complete control), read-out: Oilseed Rape plant response rating): 80%
- plant injury at 125 g/ha ([6]; Brassica napus, pre-emergence, 125 g ai/ha, preemergence, scale 0 (no effect) to 100 (complete control), read-out: Oilseed Rape plant response rating): 95%
- plant injury at 62 g/ha ([6]; Brassica napus, pre-emergence, Preemergence, 62 g ai/ha, scale 0 to 100, 0 no effect, 100 complete control, read-out: Plant response rating, Oilseed Rape): 95%
- pest or weed control at 16 g/ha ([7]; Alopecurus myosuroides, pre-emergence, 16 g ai/ha, preemergence, scale 0 to 100 (0 no effect, 100 complete control), read-out: Blackgrass plant response rating): 50%
- pest or weed control at 125 g/ha ([7]; Alopecurus myosuroides, pre-emergence, 125 g ai/ha, preemergence, scale 0 (no effect) to 100 (complete control), read-out: Blackgrass plant response rating): 90%
- pest or weed control at 62 g/ha ([7]; Alopecurus myosuroides, pre-emergence, Preemergence, 62 g ai/ha, scale 0 to 100, 0 no effect, 100 complete control, read-out: Plant response rating, Blackgrass): 90%
- pest or weed control at 16 g/ha ([8]; Amaranthus retroflexus, pre-emergence, 16 g ai/ha, preemergence, scale 0 to 100 (0 no effect, 100 complete control), read-out: Pigweed plant response rating): 100%
- pest or weed control at 125 g/ha ([8]; Amaranthus retroflexus, pre-emergence, 125 g ai/ha, preemergence, scale 0 (no effect) to 100 (complete control), read-out: Pigweed plant response rating): 100%
- pest or weed control at 62 g/ha ([8]; Amaranthus retroflexus, pre-emergence, Preemergence, 62 g ai/ha, scale 0 to 100, 0 no effect, 100 complete control, read-out: Plant response rating, Pigweed): 100%
- pest or weed control at 16 g/ha ([9]; Digitaria sanguinalis, pre-emergence, 16 g ai/ha, preemergence, scale 0 to 100 (0 no effect, 100 complete control), read-out: Crabgrass, Large plant response rating): 100%
- pest or weed control at 125 g/ha ([9]; Digitaria sanguinalis, pre-emergence, 125 g ai/ha, preemergence, scale 0 (no effect) to 100 (complete control), read-out: Crabgrass, Large plant response rating): 100%
- pest or weed control at 62 g/ha ([9]; Digitaria sanguinalis, pre-emergence, Preemergence, 62 g ai/ha, scale 0 to 100, 0 no effect, 100 complete control, read-out: Plant response rating, Crabgrass, Large): 100%
- pest or weed control at 16 g/ha ([10]; Amaranthus tuberculatus, pre-emergence, 16 g ai/ha, preemergence, scale 0 to 100 (0 no effect, 100 complete control), read-out: Waterhemp plant response rating): 100%
- pest or weed control at 125 g/ha ([10]; Amaranthus tuberculatus, pre-emergence, 125 g ai/ha, preemergence, scale 0 (no effect) to 100 (complete control), read-out: Waterhemp plant response rating): 100%
- pest or weed control at 62 g/ha ([10]; Amaranthus tuberculatus, pre-emergence, Preemergence, 62 g ai/ha, scale 0 to 100, 0 no effect, 100 complete control, read-out: Plant response rating, Waterhemp): 100%
- pest or weed control at 16 g/ha ([11]; Echinochloa crus-galli, pre-emergence, 16 g ai/ha, preemergence, scale 0 to 100 (0 no effect, 100 complete control), read-out: Barnyardgrass plant response rating): 90%
- pest or weed control at 125 g/ha ([11]; Echinochloa crus-galli, pre-emergence, 125 g ai/ha, preemergence, scale 0 (no effect) to 100 (complete control), read-out: Barnyardgrass plant response rating): 100%
- pest or weed control at 62 g/ha ([11]; Echinochloa crus-galli, pre-emergence, Preemergence, 62 g ai/ha, scale 0 to 100, 0 no effect, 100 complete control, read-out: Plant response rating, Barnyardgrass): 100%
- pest or weed control at 16 g/ha ([12]; Lolium multiflorum, pre-emergence, 16 g ai/ha, preemergence, scale 0 to 100 (0 no effect, 100 complete control), read-out: Ryegrass, Italian plant response rating): 25%
- pest or weed control at 125 g/ha ([12]; Lolium multiflorum, pre-emergence, 125 g ai/ha, preemergence, scale 0 (no effect) to 100 (complete control), read-out: Ryegrass, Italian plant response rating): 90%
- pest or weed control at 62 g/ha ([12]; Lolium multiflorum, pre-emergence, Preemergence, 62 g ai/ha, scale 0 to 100, 0 no effect, 100 complete control, read-out: Plant response rating, Ryegrass, Italian): 90%
- pest or weed control at 16 g/ha ([13]; Setaria faberi, pre-emergence, 16 g ai/ha, preemergence, scale 0 to 100 (0 no effect, 100 complete control), read-out: Foxtail, Giant plant response rating): 98%
- pest or weed control at 125 g/ha ([13]; Setaria faberi, pre-emergence, 125 g ai/ha, preemergence, scale 0 (no effect) to 100 (complete control), read-out: Foxtail, Giant plant response rating): 100%
- pest or weed control at 62 g/ha ([13]; Setaria faberi, pre-emergence, Preemergence, 62 g ai/ha, scale 0 to 100, 0 no effect, 100 complete control, read-out: Plant response rating, Foxtail, Giant): 100%

Compound: NC(=S)c1cccc(Oc2ncc(Cl)cn2)c1-n1cc(Cl)cn1 [Compound 292]
- Wheat plant response rating [1, 14]: 0
- Wheat plant response rating [1, 15]: 0
- Wheat plant response rating [1, 16]: 15
- Plant response rating, Wheat [1, 17]: 10
- Johnsongrass plant response rating [2, 14]: 0
- Johnsongrass plant response rating [2, 15]: 5
- Johnsongrass plant response rating [2, 16]: 85
- Plant response rating, Johnsongrass [2, 17]: 40
- Ragweed plant response rating [3, 14]: 25
- Ragweed plant response rating [3, 15]: 35
- Ragweed plant response rating [3, 16]: 70
- Plant response rating, Ragweed [3, 17]: 35
- Soybean plant response rating [4, 14]: 5
- Soybean plant response rating [4, 15]: 40
- Soybean plant response rating [4, 16]: 90
- Plant response rating, Soybean [4, 17]: 85
- Velvetleaf plant response rating [5, 14]: 15
- Velvetleaf plant response rating [5, 15]: 35
- Velvetleaf plant response rating [5, 16]: 100
- Plant response rating, Velvetleaf [5, 17]: 98
- Oilseed Rape plant response rating [6, 14]: 70
- Oilseed Rape plant response rating [6, 15]: 80
- Oilseed Rape plant response rating [6, 16]: 98
- Plant response rating, Oilseed Rape [6, 17]: 98
- Blackgrass plant response rating [7, 14]: 0
- Blackgrass plant response rating [7, 15]: 70
- Blackgrass plant response rating [7, 16]: 90
- Plant response rating, Blackgrass [7, 17]: 90
- Pigweed plant response rating [8, 14]: 100
- Pigweed plant response rating [8, 15]: 100
- Pigweed plant response rating [8, 16]: 100
- Plant response rating, Pigweed [8, 17]: 100
- Crabgrass, Large plant response rating [9, 14]: 100
- Crabgrass, Large plant response rating [9, 15]: 100
- Crabgrass, Large plant response rating [9, 16]: 100
- Plant response rating, Crabgrass, Large [9, 17]: 100
- Waterhemp plant response rating [10, 14]: 100
- Waterhemp plant response rating [10, 15]: 100
- Waterhemp plant response rating [10, 16]: 100
- Plant response rating, Waterhemp [10, 17]: 100
- Barnyardgrass plant response rating [11, 14]: 0
- Barnyardgrass plant response rating [11, 15]: 15
- Barnyardgrass plant response rating [11, 16]: 100
- Plant response rating, Barnyardgrass [11, 17]: 85
- Ryegrass, Italian plant response rating [12, 14]: 0
- Ryegrass, Italian plant response rating [12, 15]: 0
- Ryegrass, Italian plant response rating [12, 16]: 85
- Plant response rating, Ryegrass, Italian [12, 17]: 10
- Foxtail, Giant plant response rating [13, 14]: 45
- Foxtail, Giant plant response rating [13, 15]: 100
- Foxtail, Giant plant response rating [13, 16]: 100
- Plant response rating, Foxtail, Giant [13, 17]: 100
